# Test results from US7250442B2, “Dihydroindol-2-one derivatives as steroid hormone nuclear receptor modulators” (Eli Lilly and Company, priority 2003, dated 2007).
# Molecular target: T1, glucocorticoid receptor (Homo sapiens, UniProt P04150)
# T1 construct: host or cells: A549 human lung epithelial cells (sonicated cell extract)
# T1 sequence (P04150 1-777): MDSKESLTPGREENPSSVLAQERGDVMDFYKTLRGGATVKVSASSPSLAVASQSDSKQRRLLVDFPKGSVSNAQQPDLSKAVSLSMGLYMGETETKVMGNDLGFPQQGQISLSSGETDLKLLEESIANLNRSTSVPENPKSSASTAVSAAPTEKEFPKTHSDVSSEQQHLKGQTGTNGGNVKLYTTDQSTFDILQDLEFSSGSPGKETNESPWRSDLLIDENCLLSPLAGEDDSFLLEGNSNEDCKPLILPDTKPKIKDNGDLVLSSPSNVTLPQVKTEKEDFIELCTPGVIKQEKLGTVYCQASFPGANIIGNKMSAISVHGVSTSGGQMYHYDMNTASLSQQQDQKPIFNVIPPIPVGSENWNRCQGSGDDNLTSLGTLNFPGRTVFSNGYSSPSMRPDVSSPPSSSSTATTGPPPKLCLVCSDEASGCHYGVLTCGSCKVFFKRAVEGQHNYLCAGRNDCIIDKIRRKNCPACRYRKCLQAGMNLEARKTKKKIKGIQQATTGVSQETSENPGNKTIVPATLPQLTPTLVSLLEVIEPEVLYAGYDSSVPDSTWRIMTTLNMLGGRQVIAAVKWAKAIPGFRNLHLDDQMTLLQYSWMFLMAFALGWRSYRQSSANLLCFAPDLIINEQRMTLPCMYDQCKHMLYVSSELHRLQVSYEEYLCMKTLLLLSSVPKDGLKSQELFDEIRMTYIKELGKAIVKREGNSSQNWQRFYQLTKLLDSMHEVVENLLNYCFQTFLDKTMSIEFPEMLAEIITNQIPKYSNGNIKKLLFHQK
# Assay: Glucocorticoid Receptor Binding Assay ([3H]-dexamethasone displacement, A549 cell extract)
# Settings: A549 human lung epithelial cell extract, 1.86 nM [3H]-dexamethasone; read-out: GR Ki
# Experimental: Glucocorticoid Receptor Binding Assay:
# A549 human lung epithelial cells (ATCC) are grown at a scale where gram quantity cell pellets are obtained. Harvested cell pellets are washed twice in cold phosphate buffered saline, centrifuged, and resuspended in cold assay binding buffer. The assay binding buffer consists of 10% glycerol, 50 mM Tris-HCl (pH7.2), 75 mM sodium chloride, 1.5 mM magnesium chloride, 1.5 mM EDTA, and 10 mM sodium molybdate. Cell suspensions were lysed via sonication, centrifuged, and the “extract” supernatant is snap frozen and stored at −80C. until needed.
# GR binding assays are performed in a final volume of 140 ul containing 50-200 ug of A549 cell extract and 1.86 nM [^3H]-dexamethasone (Amersham) plus varying concentrations of test compound or vehicle. Briefly, assays are prepared at RT in 96-well Fisher 3356 plates, each well containing 100 ul of A549 cell extract, 20 ul of [^3H]-dexamethasone, and 20 ul of test compound/vehicle. Incubations are carried out at 4 degrees celsius for 16 hours. After incubation, 70 ul of 3× dextran-coated charcoal solution is added to each reaction, mixed, and incubated for 8 minutes at RT. 3×-dextran-coated charcoal solution consists of 250 ml assay binding buffer, 3.75 g Norit A charcoal (Sigma), and 1.25 g dextran T-70 (Amersham). Charcoal/unbound radioligand complexes are removed by centrifugation of the plate and 140 ul of supernatant from each well is transferred to another 96 well Optiplate (Packard Instruments). 200 ul of Microscint-20 scinillant (Packard Instruments) is added to each well and amount of receptor bound radioligand is determined using Packard Instruments TopCount instrument.
# IC50 values, defined as the concentration of test compound required to decrease [^3H]-dexamethasone binding by 50%, are then determined. Ki values for each respective test compound can then be calculated by application of the Cheng-Prusoff equation as described in Cheng et al., Relationship Between The Inhibition Constant (Ki) and The Concentration of Inhibitor Which Causes 50% Inhibition (IC50) of an Enzymatic Reaction, Biochem. Pharmacol., 22: 3099-31088; (1973).
row,Structure (SMILES),Ki
1,"Cc1cc(C2(c3cc(C)c(O)c(C)c3)C(=O)N(C)c3ccccc32)cc(C)c1O [Example 4, 3,3-Bis-(4-hydroxy-3,5-dimethyl-phenyl)-1-methyl-1,3-dihydro-indol-2-one]",≤ 500 nM
2,"CCCN1C(=O)C(c2cc(C)c(O)c(C)c2)(c2cc(C)c(O)c(C)c2)c2ccccc21 [Example 5, 3,3-Bis-(4-hydroxy-3,5-dimethyl-phenyl)-1-propyl-1,3-dihydro-indol-2-one]",≤ 500 nM
3,"Cc1cc(C2(c3cc(C)c(O)c(C)c3)C(=O)N(CC3CCCCC3)c3ccccc32)cc(C)c1O [Example 6, 1-Cyclohexylmethyl-3,3-bis-(4-hydroxy-3,5-dimethyl-phenyl)-1,3-dihydro-indol-2-one]",≤ 500 nM
4,"Cc1cc(C2(c3cc(C)c(O)c(C)c3)C(=O)N(Cc3cccc(OC(F)(F)F)c3)c3ccccc32)cc(C)c1O [Example 8, 3,3-Bis-(4-hydroxy-3,5-dimethyl-phenyl)-1-(3-trifluoromethoxy-benzyl)-1,3-dihydro-indol-2-one]",≤ 500 nM
5,"Cc1cc(C2(c3cc(C)c(O)c(C)c3)C(=O)N(Cc3c(C)noc3C)c3ccccc32)cc(C)c1O [Example 9, 1-(3,5-Dimethyl-isoxazol-4-ylmethyl)-3,3-bis-(4-hydroxy-3,5-dimethyl-phenyl)-1,3-dihydro-indol-2-one]",≤ 500 nM
6,"Cc1cc(C2(c3cc(C)c(O)c(C)c3)C(=O)N(Cc3ccccc3Cl)c3ccc(Br)cc32)cc(C)c1O [Example 19, 5-Bromo-1-(2-chloro-benzyl)-3,3-bis-(4-hydroxy-3,5-dimethyl-phenyl)-1,3-dihydro-indol-2-one]",≤ 1000 nM
7,"Cc1ccccc1CN1C(=O)C(c2cc(C)c(O)c(C)c2)(c2cc(C)c(O)c(C)c2)c2cc(Br)ccc21 [Example 20, 5-Bromo-3,3-bis-(4-hydroxy-3,5-dimethyl-phenyl)-1-(2-methyl-benzyl)-1,3-dihydro-indol-2-one]",≤ 500 nM
8,"Cc1ccc2c(c1)C(c1cc(C)c(O)c(C)c1)(c1cc(C)c(O)c(C)c1)C(=O)N2Cc1ccccc1C [Example 21, 3,3-Bis-(4-hydroxy-3,5-dimethyl-phenyl)-5-methyl-1-(2-methyl-benzyl)-1,3-dihydro-indol-2-one]",≤ 500 nM
9,"Cc1ccc2c(c1)C(c1cc(C)c(O)c(C)c1)(c1cc(C)c(O)c(C)c1)C(=O)N2Cc1ccccc1Cl [Example 22, 1-(2-Chloro-benzyl)-3,3-bis-(4-hydroxy-3,5-dimethyl-phenyl)-5-methyl-1,3-dihydro-indol-2-one]",≤ 500 nM
10,"Cc1ccc2c(c1)C(c1cc(C)c(O)c(C)c1)(c1cc(C)c(O)c(C)c1)C(=O)N2Cc1ccccc1C#N [Example 23, 2-[3,3-Bis-(4-hydroxy-3,5-dimethyl-phenyl)-5-methyl-2-oxo-2,3-dihydro-indol-1-ylmethyl]-benzonitrile]",≤ 500 nM
11,"Cc1cc(C2(c3cc(C)c(O)c(C)c3)C(=O)N(Cc3ccccc3Cl)c3c(C)cccc32)cc(C)c1O [Example 24, 1-(2-Chloro-benzyl)-3,3-bis-(4-hydroxy-3,5-dimethyl-phenyl)-7-methyl-1,3-dihydro-indol-2-one]",≤ 1000 nM
12,"CCc1cccc2c1N(Cc1ccccc1Cl)C(=O)C2(c1cc(C)c(O)c(C)c1)c1cc(C)c(O)c(C)c1 [Example 25, 1-(2-Chloro-benzyl)-7-ethyl-3,3-bis-(4-hydroxy-3,5-dimethyl-phenyl)-1,3-dihydro-indol-2-one]",≤ 1000 nM
13,"Cc1cc(C2(c3cc(C)c(O)c(C)c3)C(=O)N(Cc3ccccc3Cl)c3cccc(Cl)c32)cc(C)c1O [Example 26, 4-Chloro-1-(2-chloro-benzyl)-3,3-bis-(4-hydroxy-3,5-dimethyl-phenyl)-1,3-dihydro-indol-2-one]",≤ 500 nM
14,"Cc1cc(C2(c3cc(C)c(O)c(C)c3)C(=O)N(Cc3ccc(F)cc3F)c3ccccc32)cc(C)c1O [Example 43, 1-(2,4-Difluoro-benzyl)-3,3-bis-(4-hydroxy-3,5-dimethyl-phenyl)-1,3-dihydro-indol-2-one]",≤ 500 nM
15,"Cc1cc(C2(c3cc(C)c(O)c(C)c3)C(=O)N(Cc3ccccc3C(F)(F)F)c3ccccc32)cc(C)c1O [Example 53, 3,3-Bis-(4-hydroxy-3,5-dimethyl-phenyl)-1-(2-trifluoromethyl-benzyl)-1,3-dihydro-indol-2-one]",≤ 1000 nM

# The next lines start with the values.
row,Ki,Structure (SMILES)
1,≤ 500 nM,"COc1ccc(CN2C(=O)C(c3cc(C)c(O)c(C)c3)(c3cc(C)c(O)c(C)c3)c3ccccc32)cc1 [Example 1, 3,3-Bis-(4-hydroxy-3,5-dimethyl-phenyl)-1-(4-methoxy-benzyl)-1,3-dihydro-indol-2-one]"
2,≤ 500 nM,"COC(=O)c1ccc(CN2C(=O)C(c3cc(C)c(O)c(C)c3)(c3cc(C)c(O)c(C)c3)c3ccccc32)cc1 [Example 3, 4-[3,3-Bis-(4-hydroxy-3,5-dimethyl-phenyl)-2-oxo-2,3-dihydro-indol-1-ylmethyl]-benzoic acid methyl ester]"
3,≤ 500 nM,"Cc1cc(C2(c3cc(C)c(O)c(C)c3)C(=O)N(Cc3ccccc3Cl)c3ccccc32)cc(C)c1O [Example 11, 1-(2-Chloro-benzyl)-3,3-bis-(4-hydroxy-3,5-dimethyl-phenyl)-1,3-dihydro-indol-2-one]"
4,≤ 500 nM,"Cc1cc(C2(c3ccc(O)c(C)c3)C(=O)N(Cc3ccccc3)c3ccccc32)ccc1O [Example 12, 1-Benzyl-3,3-bis-(4-hydroxy-3-methyl-phenyl)-1,3-dihydro-indol-2-one]"
5,≤ 500 nM,"O=C1N(Cc2ccccc2)c2ccccc2C1(c1cc(Cl)c(O)c(Cl)c1)c1cc(Cl)c(O)c(Cl)c1 [Example 14, 1-Benzyl-3,3-bis-(3,5-dichloro-4-hydroxy-phenyl)-1,3-dihydro-indol-2-one]"
6,≤ 1000 nM,"Cc1cc(C2(c3cc(C)c(O)c(C)c3)C(=O)N(Cc3ccccc3)c3ccc(Br)cc32)cc(C)c1O [Example 15, 1-Benzyl-5-bromo-3,3-bis-(4-hydroxy-3,5-dimethyl-phenyl)-1,3-dihydro-indol-2-one]"
7,≤ 500 nM,"Cc1ccc2c(c1)C(c1cc(C)c(O)c(C)c1)(c1cc(C)c(O)c(C)c1)C(=O)N2Cc1ccccc1 [Example 17, 1-Benzyl-3,3-bis-(4-hydroxy-3,5-dimethyl-phenyl)-5-methyl-1,3-dihydro-indol-2-one]"
8,≤ 500 nM,"Cc1cc(C2(c3cc(C)c(O)c(C)c3)C(=O)N(Cc3ccccc3Cl)c3ccccc32)cc(C)c1N (centres unmarked) [Example 35, 3-(4-Amino-3,5-dimethyl-phenyl)-1-(2-chloro-benzyl)-3-(4-hydroxy-3,5-dimethyl-phenyl)-1,3-dihydro-indol-2-one]"
9,≤ 500 nM,"Cc1cc(C2(c3ccc(O)cc3)C(=O)N(Cc3ccccc3Cl)c3ccccc32)cc(C)c1O (centres unmarked) [Example 36, 1-(2-Chloro-benzyl)-3-(4-hydroxy-3,5-dimethyl-phenyl)-3-(4-hydroxy-phenyl)-1,3-dihydro-indol-2-one]"
10,≤ 500 nM,"Cc1cc(C2(c3cc(C)c(O)c(C)c3)C(=O)N(Cc3ccccc3F)c3ccccc32)cc(C)c1O [Example 50, 1-(2-Fluoro-benzyl)-3,3-bis-(4-hydroxy-3,5-dimethyl-phenyl)-1,3-dihydro-indol-2-one]"
11,≤ 1000 nM,"Cc1cc(C2(c3cc(C)c(O)c(C)c3)C(=O)N(Cc3ccccc3-c3ccccc3)c3ccccc32)cc(C)c1O [Example 54, 1-Biphenyl-2-ylmethyl-3,3-bis-(4-hydroxy-3,5-dimethyl-phenyl)-1,3-dihydro-indol-2-one]"
